# Experimental data as given in ChEMBL document CHEMBL3751822, “C1C2-linker substituted 1,5-naphthyridine analogues of oxabicyclooctane-linked NBTIs as broad-spectrum antibacterial agents (part 7)” (Medchemcomm, 2015).
# Tests used:
# Staphylococcus aureus [1] = assay: Antibacterial activity against Staphylococcus aureus infected in po dosed mouse; assay type: functional; settings: Staphylococcus aureus, po; read-out: ED50
# Staphylococcus aureus [2] = assay: Antibacterial activity against Staphylococcus aureus infected in iv dosed mouse; assay type: functional; settings: Staphylococcus aureus, iv; read-out: ED50
# Staphylococcus aureus [3] = assay: Ratio of MIC for quinolone-resistant Staphylococcus aureus MS5935 to MIC for quinolone-sensitive Staphylococcus aureus MS5935; assay type: functional
# Escherichia coli = assay: Antibacterial activity against Escherichia coli ATCC 25922 by micro-broth dilution method; assay type: functional; settings: Escherichia coli, ATCC 25922; read-out: MIC
# Acinetobacter baumannii = assay: Antibacterial activity against Acinetobacter baumannii IID876 by micro-broth dilution method; assay type: functional; settings: Acinetobacter baumannii, IID876; read-out: MIC
# Staphylococcus aureus [4] = assay: Antibacterial activity against methicillin resistant Staphylococcus aureus OIT971 by micro-broth dilution method; assay type: functional; settings: Staphylococcus aureus, OIT971; read-out: MIC
# Staphylococcus aureus [5] = assay: Antibacterial activity against Staphylococcus aureus Smith by micro-broth dilution method; assay type: functional; settings: Staphylococcus aureus, Smith; read-out: MIC
# [6] = biological target: T1, Voltage-gated inwardly rectifying potassium channel KCNH2 (Homo sapiens, UniProt Q12809); assay: Displacement of MK499 from human ERG
# Pseudomonas aeruginosa = assay: Antibacterial activity against Pseudomonas aeruginosa PAO1 by micro-broth dilution method; assay type: functional; settings: Pseudomonas aeruginosa, PAO1; read-out: MIC
# Enterococcus faecium = assay: Antibacterial activity against Enterococcus faecium VanA by micro-broth dilution method; assay type: functional; settings: Enterococcus faecium, VanA; read-out: MIC
# Streptococcus pneumoniae = assay: Antibacterial activity against Streptococcus pneumoniae IID553 by micro-broth dilution method; assay type: functional; settings: Streptococcus pneumoniae, IID553; read-out: MIC
# [7] = biological target: T1, Voltage-gated inwardly rectifying potassium channel KCNH2; assay: Inhibition of human ERG expressed in CHO cells by patch express assay; assay type: cell-based
# T1 sequence (Q12809 whole entry): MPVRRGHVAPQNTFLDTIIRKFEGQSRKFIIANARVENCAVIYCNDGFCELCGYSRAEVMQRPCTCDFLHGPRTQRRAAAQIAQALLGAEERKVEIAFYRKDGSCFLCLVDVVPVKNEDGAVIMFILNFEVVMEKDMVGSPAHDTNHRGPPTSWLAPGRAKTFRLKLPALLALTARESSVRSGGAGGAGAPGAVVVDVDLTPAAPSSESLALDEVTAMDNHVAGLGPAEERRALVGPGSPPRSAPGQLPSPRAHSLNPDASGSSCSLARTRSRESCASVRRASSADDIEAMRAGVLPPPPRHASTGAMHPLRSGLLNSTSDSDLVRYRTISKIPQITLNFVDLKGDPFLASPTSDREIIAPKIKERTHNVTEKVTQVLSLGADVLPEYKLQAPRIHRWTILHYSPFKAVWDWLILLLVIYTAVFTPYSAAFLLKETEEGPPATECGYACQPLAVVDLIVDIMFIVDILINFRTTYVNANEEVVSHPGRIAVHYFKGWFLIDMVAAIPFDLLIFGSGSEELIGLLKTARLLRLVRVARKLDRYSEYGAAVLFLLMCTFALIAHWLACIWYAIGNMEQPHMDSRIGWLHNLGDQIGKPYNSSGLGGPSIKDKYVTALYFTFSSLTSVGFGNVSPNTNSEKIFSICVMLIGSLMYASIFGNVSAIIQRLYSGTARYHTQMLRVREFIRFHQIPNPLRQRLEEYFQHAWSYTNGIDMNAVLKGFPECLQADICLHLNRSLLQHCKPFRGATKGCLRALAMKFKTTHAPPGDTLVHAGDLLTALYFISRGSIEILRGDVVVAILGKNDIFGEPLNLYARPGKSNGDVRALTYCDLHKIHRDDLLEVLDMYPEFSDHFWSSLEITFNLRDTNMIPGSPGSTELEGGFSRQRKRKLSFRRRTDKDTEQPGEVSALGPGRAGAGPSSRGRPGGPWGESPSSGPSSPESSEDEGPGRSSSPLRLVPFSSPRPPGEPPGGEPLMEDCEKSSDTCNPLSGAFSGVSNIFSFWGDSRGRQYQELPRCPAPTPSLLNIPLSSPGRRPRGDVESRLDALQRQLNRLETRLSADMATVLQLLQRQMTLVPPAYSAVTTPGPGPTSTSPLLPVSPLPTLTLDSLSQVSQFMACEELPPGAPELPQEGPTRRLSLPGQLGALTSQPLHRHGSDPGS
SMILES,ED50 (Staphylococcus aureus [1]),ED50 (Staphylococcus aureus [2]),Ratio (Staphylococcus aureus [3]),MIC (Escherichia coli),MIC (Acinetobacter baumannii),MIC (Staphylococcus aureus [4]),MIC (Staphylococcus aureus [5]),IC50 [6],MIC (Pseudomonas aeruginosa),MIC (Enterococcus faecium),MIC (Streptococcus pneumoniae),IC50 [7]
COc1ccc2ncc(F)c(C[C@H](O)C34CCC(NCc5ccc6c(n5)NC(=O)CO6)(CC3)CO4)c2n1.Cl,2.2 mg/kg,2.5 mg/kg,–,–,–,–,–,–,–,–,–,–
COc1ccc2ncc(F)c(CCC34CCC(NCc5ccc6c(n5)NC(=O)CO6)(CC3)CO4)c2n1,–,–,2,–,–,–,–,–,–,–,–,–
CO/N=C(/Cc1c(F)cnc2ccc(OC)nc12)C12CCC(NCc3ccc4c(n3)NC(=O)CO4)(CC1)CO2,–,–,<4,16 µg/mL,16 µg/mL,16 µg/mL,16 µg/mL,2500 nM,16 µg/mL,16 µg/mL,16 µg/mL,–
COc1ccc2ncc(F)c(C[C@H](OC)C34CCC(NCc5ccc6c(n5)NC(=O)CO6)(CC3)CO4)c2n1,–,–,–,16 µg/mL,8 µg/mL,0.25 µg/mL,0.25 µg/mL,–,16 µg/mL,8 µg/mL,2 µg/mL,–
COc1ccc2ncc(F)c(CC(=O)C34CCC(NCc5ccc6c(n5)NC(=O)CO6)(CC3)CO4)c2n1.Cl,6.4 mg/kg,5.1 mg/kg,–,–,–,–,–,–,–,–,–,–
COc1ccc2ncc(F)c(C/C(=N\O)C34CCC(NCc5ccc6c(n5)NC(=O)CO6)(CC3)CO4)c2n1,–,–,<4,2 µg/mL,2 µg/mL,0.5 µg/mL,0.5 µg/mL,1600 nM,2 µg/mL,2 µg/mL,2 µg/mL,–
COc1ccc2ncc(F)c([C@@H](O)[C@H](O)C34CCC(NCc5ccc6c(n5)NC(=O)CO6)(CC3)CO4)c2n1,–,–,<4,16 µg/mL,2 µg/mL,0.25 µg/mL,0.25 µg/mL,60000 nM,32 µg/mL,8 µg/mL,2 µg/mL,–
COc1ccc2ncc(F)c(C/C(=N/O)C34CCC(NCc5ccc6c(n5)NC(=O)CO6)(CC3)CO4)c2n1,–,–,<4,16 µg/mL,16 µg/mL,16 µg/mL,16 µg/mL,5400 nM,16 µg/mL,16 µg/mL,16 µg/mL,–
COc1ccc2ncc(F)c(C(=O)CC34CCC(NCc5ccc6c(n5)NC(=O)CO6)(CC3)CO4)c2n1,–,–,<4,4 µg/mL,1 µg/mL,0.06 µg/mL,0.06 µg/mL,1200 nM,32 µg/mL,2 µg/mL,0.25 µg/mL,3.7 µM
COc1ccc2ncc(F)c(CC(=O)C34CCC(NCc5ccc6c(n5)NC(=O)CO6)(CC3)CO4)c2n1,–,–,–,16 µg/mL,2 µg/mL,0.13 µg/mL,0.13 µg/mL,–,16 µg/mL,4 µg/mL,0.25 µg/mL,–
COc1ccc2ncc(F)c(CC(F)C34CCC(NCc5ccc6c(n5)NC(=O)CO6)(CC3)CO4)c2n1 (racemic),–,–,–,8 µg/mL,8 µg/mL,0.25 µg/mL,0.25 µg/mL,–,8 µg/mL,8 µg/mL,1 µg/mL,–
COc1ccc2ncc(F)c(C(CC34CCC(NCc5ccc6c(n5)NC(=O)CO6)(CC3)CO4)C(=O)O)c2n1 (racemic),–,–,<4,32 µg/mL,32 µg/mL,1 µg/mL,1 µg/mL,1000 nM,32 µg/mL,32 µg/mL,4 µg/mL,–
COc1ccc2ncc(F)c(CC(NS(C)(=O)=O)C34CCC(NCc5ccc6c(n5)NC(=O)CO6)(CC3)CO4)c2n1 (racemic),–,–,–,32 µg/mL,32 µg/mL,32 µg/mL,32 µg/mL,–,32 µg/mL,32 µg/mL,32 µg/mL,–
CCOC(=O)C(CC12CCC(NCc3ccc4c(n3)NC(=O)CO4)(CC1)CO2)c1c(F)cnc2ccc(OC)nc12 (racemic),–,–,–,32 µg/mL,32 µg/mL,2 µg/mL,2 µg/mL,–,32 µg/mL,32 µg/mL,8 µg/mL,–
COc1ccc2ncc(F)c(CC(NOC(C)=O)C34CCC(NCc5ccc6c(n5)NC(=O)CO6)(CC3)CO4)c2n1 (racemic),–,–,–,32 µg/mL,32 µg/mL,2 µg/mL,2 µg/mL,–,32 µg/mL,32 µg/mL,16 µg/mL,–
COc1ccc2ncc(F)c(CC(OCCO)C34CCC(NCc5ccc6c(n5)NC(=O)CO6)(CC3)CO4)c2n1 (racemic),–,–,–,32 µg/mL,32 µg/mL,2 µg/mL,2 µg/mL,–,32 µg/mL,32 µg/mL,8 µg/mL,–
